From ChEMBL document CHEMBL2163191, “Antiallergic activity profile in vitro RBL-2H3 and in vivo passive cutaneous anaphylaxis mouse model of new sila-substituted 1,3,4-oxadiazoles” (J Med Chem, 2012)
Calls of active or inactive are those of the source. The rule behind the calls is not given here.

What was measured:
[1] = system: Mus musculus; assay: Antiallergic activity in IgE/Ag-induced passive cutaneous anaphylactic ICR mouse model injected with DNP-HSA-Evans blue dye post DNP-IgE challenge at 50 to 100 mg/kg, po 1 hr before antigenic challenge measured after 2 hrs post IgE/Ag challenge; type: functional, organism-based
[2] = system: RBL-2H3; assay: Inhibition of PI3K-mediated Akt phosphorylation in IgE/Ag-induced rat RBL2H3 cells incubated in presence of DNP-HSA for 1 hr post compound dosing by Western blotting; type: cell-based
[3] = system: RBL-2H3; assay: Inhibition of TNFalpha mRNA expression in IgE/Ag-stimulated rat RBL2H3 cells incubated in presence of DNP-HSA for 1 hr post compound dosing by RT-PCR; type: functional, cell-based
[4] = system: RBL-2H3; assay: Cytotoxicity against IgE/Ag-stimulated rat RBL2H3 cells at 50 to 200 uM incubated for 23 hrs by Ez-cytox assay; type: cell-based; details: rbl-2h3, 23 h
[5] = system: RBL-2H3; assay: Antidegranulation effect in DNP-HSA induced rat RBL2H3 cells assessed as IgE/Ag complex-induced degranulation preincubated for 30 mins before DNP-HSA challenge for 15 mins by beta-hexosaminidase release based microplate reader method; type: functional, cell-based
[6] = system: Mus musculus; assay: Antiallergic activity in IgE/Ag-induced passive cutaneous anaphylactic ICR mouse model injected with DNP-HSA-Evans blue dye post DNP-IgE challenge at 50 mg/kg, po 1 hr before antigenic challenge measured after 2 hrs post IgE/Ag challenge; type: functional, organism-based; set-up: dose 50 mg/kg

Row | SMILES | Activity [1] | inhibition [2] | inhibition [3] | Activity [4] | Activity [5] | Activity [6]
1 | C[Si](C)(C)CS(=O)(=O)Cc1nnc(-c2ccc(Cl)cc2)o1 | Active | Dose-dependent effect | Dose-dependent effect | Non-toxic | Dose-dependent effect | –
2 | CC(C)(C)CS(=O)(=O)Cc1nnc(-c2ccc(Cl)cc2)o1 | – | – | – | – | inactive | –
3 | CN(C)CCOC(c1ccccc1)c1ccccc1 | – | – | – | – | – | Active
